Species on record: Rattus norvegicus
Assay: Open TG-GATES - Regimen: Single
Type: toxicity, organism-based, Sprague-Dawley
Set-up: regimen Single, gender Male, age 6 weeks
Conditions: in vivo, po, 400 mg/kg, route gavage, dose level High; for KIDNEY_L / KIDNEY_R / KIDNEY_TOTAL: tissue Kidney; for LIVER: tissue Liver; for ALT / AST / BUN / CRE / Ca / Cl / DBIL / GLC / IP / LDH / Na / PL / RALB / TBIL / TC / TG / TP / gamma-GTP / ALP: tissue Plasma

CC(C)N(CCC(C(N)=O)(c1ccccc1)c1ccccn1)C(C)C (centres undefined) [DISOPYRAMIDE]
TERMINAL_BW (3 h): 210.5 g | APTT (3 h, tissue Blood): 22.6 s | Bas (3 h, tissue Blood): 0% | Eos (3 h, tissue Blood): 1% | Fbg (3 h, tissue Blood): 327.6 mg/dL | Ht (3 h, tissue Blood): 41.8% | Lym (3 h, tissue Blood): 74.6% | MCHC (3 h, tissue Blood): 32.1% | MCV (3 h, tissue Blood): 62.7 fL | Mono (3 h, tissue Blood): 2.2% | Neu (3 h, tissue Blood): 22% | PT (3 h, tissue Blood): 15.5 s | Plat (3 h, tissue Blood): 127.1 x10_4/uL | RBC (3 h, tissue Blood): 667.8 x10_4/ul | Ret (3 h, tissue Blood): 8% | WBC (3 h, tissue Blood): 55.8 x10_2/uL | KIDNEY_L (3 h): 1 g | KIDNEY_R (3 h): 1 g | KIDNEY_TOTAL (3 h): 1.9 g | LIVER (3 h): 9.8 g | ALT (3 h): 47.4 IU/L | AST (3 h): 85.2 IU/L | BUN (3 h): 12.2 mg/dL | CRE (3 h): 0.1 mg/dL | Ca (3 h): 10.2 mg/dL | Cl (3 h): 106.2 meq/L | DBIL (3 h): 0.002 mg/dL | GLC (3 h): 129.8 mg/dL | IP (3 h): 8.9 mg/dL | LDH (3 h): 264.8 IU/L | Na (3 h): 142.8 meq/L | PL (3 h): 126.6 mg/dL | RALB (3 h): 3 g/dL | TBIL (3 h): 0 mg/dL | TC (3 h): 74.2 mg/dL | TG (3 h): 47.8 mg/dL | TP (3 h): 5.6 g/dL | gamma-GTP (3 h): 1 IU/L | TERMINAL_BW (6 h): 207.1 g | APTT (6 h, tissue Blood): 22.8 s | Bas (6 h, tissue Blood): 0% | Eos (6 h, tissue Blood): 0.4% | Fbg (6 h, tissue Blood): 326 mg/dL | Ht (6 h, tissue Blood): 42.8% | Lym (6 h, tissue Blood): 73.2% | MCHC (6 h, tissue Blood): 31.8% | MCV (6 h, tissue Blood): 62.5 fL | Mono (6 h, tissue Blood): 2.6% | Neu (6 h, tissue Blood): 23.2% | PT (6 h, tissue Blood): 15.4 s | Plat (6 h, tissue Blood): 122.6 x10_4/uL | RBC (6 h, tissue Blood): 685.8 x10_4/ul | Ret (6 h, tissue Blood): 7.5% | WBC (6 h, tissue Blood): 67.9 x10_2/uL | KIDNEY_L (6 h): 1 g | KIDNEY_R (6 h): 1 g | KIDNEY_TOTAL (6 h): 2 g | LIVER (6 h): 9.2 g | ALP (6 h): 1240.8 IU/L | ALT (6 h): 38.8 IU/L | AST (6 h): 74 IU/L | BUN (6 h): 12.2 mg/dL | CRE (6 h): 0.1 mg/dL | Ca (6 h): 10.4 mg/dL | Cl (6 h): 105.8 meq/L | DBIL (6 h): 0.006 mg/dL | GLC (6 h): 157.2 mg/dL | IP (6 h): 8.7 mg/dL | LDH (6 h): 237.8 IU/L | Na (6 h): 140.6 meq/L | PL (6 h): 132.2 mg/dL | RALB (6 h): 3 g/dL | TBIL (6 h): 0.006 mg/dL | TC (6 h): 75.4 mg/dL | TG (6 h): 43.2 mg/dL | TP (6 h): 5.6 g/dL | gamma-GTP (6 h): 1.6 IU/L | TERMINAL_BW (9 h): 208.7 g | APTT (9 h, tissue Blood): 24 s | Bas (9 h, tissue Blood): 0% | Eos (9 h, tissue Blood): 0.4% | Fbg (9 h, tissue Blood): 326 mg/dL | Ht (9 h, tissue Blood): 42.6% | Lym (9 h, tissue Blood): 71.8% | MCHC (9 h, tissue Blood): 31.9% | MCV (9 h, tissue Blood): 62.9 fL | Mono (9 h, tissue Blood): 1.8% | Neu (9 h, tissue Blood): 25.4% | PT (9 h, tissue Blood): 15.7 s | Plat (9 h, tissue Blood): 120.6 x10_4/uL | RBC (9 h, tissue Blood): 677.6 x10_4/ul | Ret (9 h, tissue Blood): 7.7% | WBC (9 h, tissue Blood): 64.5 x10_2/uL | KIDNEY_L (9 h): 1 g | KIDNEY_R (9 h): 1 g | KIDNEY_TOTAL (9 h): 2 g | LIVER (9 h): 9 g | ALP (9 h): 1238 IU/L | ALT (9 h): 41 IU/L | AST (9 h): 79 IU/L | BUN (9 h): 14 mg/dL | CRE (9 h): 0.1 mg/dL | Ca (9 h): 10.6 mg/dL | Cl (9 h): 106 meq/L | DBIL (9 h): 0 mg/dL | GLC (9 h): 145.6 mg/dL | IP (9 h): 8.4 mg/dL | LDH (9 h): 217.4 IU/L | Na (9 h): 142 meq/L | PL (9 h): 130.4 mg/dL | RALB (9 h): 3.1 g/dL | TBIL (9 h): 0 mg/dL | TC (9 h): 70.8 mg/dL | TG (9 h): 63.4 mg/dL | TP (9 h): 5.8 g/dL | gamma-GTP (9 h): 1.4 IU/L | TERMINAL_BW (24 h): 215.7 g | APTT (24 h, tissue Blood): 23.1 s | Bas (24 h, tissue Blood): 0% | Eos (24 h, tissue Blood): 0.8% | Fbg (24 h, tissue Blood): 289.6 mg/dL | Hb (24 h, tissue Blood): 13 g/dL | Ht (24 h, tissue Blood): 40.3% | Lym (24 h, tissue Blood): 83% | MCHC (24 h, tissue Blood): 32.2% | MCV (24 h, tissue Blood): 63.1 fL | Mono (24 h, tissue Blood): 1.6% | PT (24 h, tissue Blood): 16.1 s | Plat (24 h, tissue Blood): 118.5 x10_4/uL | RBC (24 h, tissue Blood): 639.8 x10_4/ul | Ret (24 h, tissue Blood): 6.5% | WBC (24 h, tissue Blood): 82.6 x10_2/uL | KIDNEY_L (24 h): 1 g | KIDNEY_R (24 h): 1 g | KIDNEY_TOTAL (24 h): 1.9 g | LIVER (24 h): 8.8 g | ALP (24 h): 1524 IU/L | ALT (24 h): 48.2 IU/L | AST (24 h): 78.6 IU/L | BUN (24 h): 16 mg/dL | CRE (24 h): 0.2 mg/dL | Ca (24 h): 10.4 mg/dL | Cl (24 h): 106 meq/L | DBIL (24 h): 0 mg/dL | GLC (24 h): 153.2 mg/dL | IP (24 h): 8.8 mg/dL | LDH (24 h): 215.8 IU/L | PL (24 h): 133.2 mg/dL | RALB (24 h): 2.8 g/dL | TBIL (24 h): 0 mg/dL | TC (24 h): 75 mg/dL | TG (24 h): 58.2 mg/dL | TP (24 h): 5.4 g/dL | gamma-GTP (24 h): 2 IU/L

Reference: ChEMBL document CHEMBL3885861, “Open TG-GATES”
